Experimental findings from paper PMC11249646, “Small-Molecule Disruptors of the Interaction between Calcium- and Integrin-Binding Protein 1 and Integrin αIIbβ3 as Novel Antiplatelet Agents” (ACS Pharmacology & Translational Science, 2024) are described below.

Read-outs that look alike come from different tables or passages of the source.

This test has as its target T1, CIB1 and αIIb interaction (CIB1-GST : F-αIIb peptide) (Homo sapiens, UniProt Q99828).
T1 construct: made in house; host or cells: BL-21 plus RIL cells (E. coli)
T1 sequence (Q99828 1-191): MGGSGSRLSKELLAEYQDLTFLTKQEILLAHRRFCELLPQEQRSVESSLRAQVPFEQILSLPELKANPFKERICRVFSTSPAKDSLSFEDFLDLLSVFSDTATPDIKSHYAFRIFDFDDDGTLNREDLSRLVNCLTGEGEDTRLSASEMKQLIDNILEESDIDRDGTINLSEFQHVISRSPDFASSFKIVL
The experiment in a line: FP assay, 1536-well qHTS format (primary and confirmatory screen). It counts as binding. To be noted: for Efficacy (%): negative = inhibition; for Curve Class: negative sign = inhibitory curve; for IC50: read-out: IC50.

Setting [1] is: qHTS primary screen hits, Table S2.
[2] abbreviates: qHTS primary screen hits, Table S2, several classes where COUNT > 1.
[3] abbreviates: qHTS primary screen of LOPAC/NPACT libraries.

Take `CCC(C)(C)n1nnnc1C(c1cc2ccc(OC)cc2[nH]c1=O)N1CCc2ccccc2C1.O=C(O)C(F)(F)F` (stereo not drawn) [NCGC00350929-01]: under setting [1], the “Efficacy (%)” value is on record as -29% and the IC50 was 56.2 µM. For the same molecule, the “Curve Class” value under setting [2] is -2.4.

As to `O=C1c2c(O)cc(O)cc2OC(c2ccc(O)c(O)c2)C1O` (stereo not drawn) [NCGC00261882-01], under setting [3], the “Efficacy (%)” value was -14%, the “Curve Class” value was -1.2 and the IC50 is 10 µM.

On to `O=C(O)C(F)(F)F.O=C1CCCC2=C1C(c1n[nH]cc1Cl)NC(Nc1nc3ccccc3o1)=N2` (stereo not drawn) [NCGC00242659-02], for which, under setting [1], the “Efficacy (%)” value is listed as -31% and the IC50 turned out to be 31.6 µM. In addition, under setting [2], the “Curve Class” value is on record as -2.4.

`O=S(=O)(Nc1cc(O)cc2cccnc12)c1ccc(Cl)s1` [NCGC00161701-01]: under setting [1], the “Efficacy (%)” value is reported as -37% and the IC50 came out at 50.1 µM. In addition, under setting [2], the “Curve Class” value is -2.4.

On to `CN(C)c1ccc(NC(=O)NS(=O)(=O)c2ccc(Cl)cc2)cc1` [NCGC00485899-01], for which, under setting [3], the “Efficacy (%)” value is given as -32%, the “Curve Class” value is given as -2.4 and the IC50 was 50.1 µM.

As to `Nc1nc(N)c2nc(CNc3ccc(C(=O)NC(CCC(=O)O)C(=O)O)cc3)cnc2n1` (stereo not drawn) [NCGC00015038-09], under setting [1], the “Efficacy (%)” value is -49%, the “Curve Class” value is given as -2.2 and the IC50 was 39.8 µM.

As to `O=C(O)C(F)(F)F.OCc1ccc(-c2ccc3ncnc(NCCc4c[nH]cn4)c3c2)o1` [NCGC00188669-01], under setting [1], the “Efficacy (%)” value was -40% and the IC50 was 44.7 µM. Besides, under setting [2], the “Curve Class” value is given as -2.4.

On to `O=S1(=O)N=C(Oc2ccccc2)c2ccccc21` [NCGC00079022-02], for which, under setting [1], the “Efficacy (%)” value was -23% and the IC50 was found to be 79.4 µM. The “Curve Class” value under setting [2] was -2.4.

As for `CCc1oc2ccccc2c1C(=O)c1cc(Br)c(O)c(Br)c1` [NCGC00013895-18], under “qHTS FP screen hits, Table S2”, the “Efficacy (%)” value is reported as -51% and the IC50 came out at 34.9 µM. Moreover, the “Curve Class” value (qHTS FP screen hits, Table S2, one class per curve where COUNT > 1) is -2.2.

For `Cc1cc(C)nc(NC(=S)N2CCN(c3cc4ccccc4cn3)CC2)c1.O=C(O)C(F)(F)F` [NCGC00244142-01], under setting [1], the “Efficacy (%)” value was -31% and the IC50 stood at 79.4 µM. Moreover, the “Curve Class” value under setting [2] is listed as -2.4.

`O=C(Nc1ncc([N+](=O)[O-])s1)c1ccccc1O` [NCGC00388427-01]: under setting [3], the “Efficacy (%)” value is -31%, the “Curve Class” value is on record as -2.4 and the IC50 was determined as 44.7 µM.

Consider `CC1(C)CCC(CN2CCN(c3ccc(C(=O)NS(=O)(=O)c4ccc(NCC5CCOCC5)c([N+](=O)[O-])c4)c(Oc4cnc5[nH]ccc5c4)c3)CC2)=C(c2ccc(Cl)cc2)C1` [NCGC00345789-10], for which, under setting [3], the “Efficacy (%)” value is -26%, the “Curve Class” value is reported as -2.4 and the concentration for half-maximal inhibition (IC50) turned out to be 39.8 µM.

For `CCOC(=O)c1csc(-n2nc(-c3ccc(F)c(F)c3)cc2O)n1` [NCGC00356457-01], under setting [1], the “Efficacy (%)” value is -29%, the “Curve Class” value is -2.4 and the IC50 was found to be 56.2 µM.

As to `COc1ccc(OC)c(-n2c3c(cc(-c4nnn(-c5ccc(Cl)cc5)n4)c2=O)C(=O)CC(C)(C)C3)c1.O=C(O)C(F)(F)F` [NCGC00347300-01], under setting [1], the “Efficacy (%)” value is -41%, the “Curve Class” value is on record as -3 and the IC50 was found to be 89.1 µM.

Regarding `CN(C)CC1CCn2c(c(C3=C(c4cn(C)c5ccccc45)C(=O)NC3=O)c3ccccc32)C1.Cl` (stereo not drawn) [NCGC00163696-04], under setting [3], the “Efficacy (%)” value is -28%, the “Curve Class” value is given as -2.4 and the concentration for half-maximal inhibition (IC50) was determined as 56.2 µM.

Turning to `CN1CCN(c2ncc3nc(-c4cn(C)c5ccccc45)c(=O)n(Cc4cccs4)c3n2)CC1.O=C(O)C(F)(F)F` [NCGC00012779-02], under setting [1], the “Efficacy (%)” value is on record as -27% and the IC50 was found to be 50.1 µM. Under setting [2], the “Curve Class” value is -2.4.

Turning to `COc1ccccc1-c1cccc(-c2c(O)c3cc(C#N)c(Cl)cc3[nH]c2=O)c1` [NCGC00263230-01], under setting [1], the “Efficacy (%)” value is given as -24% and the IC50 turned out to be 62.2 µM. For the same molecule, the “Curve Class” value under setting [2] is reported as -2.4.

For the molecule `N#CC(=C(\N)Sc1ccccc1N)/C(C#N)=C(/N)Sc1ccccc1N` [NCGC00094462-03], under setting [3], the “Efficacy (%)” value is listed as -18%, the “Curve Class” value was -3 and the IC50 turned out to be 20 µM.

On to `Oc1ccccc1C1Nc2cccc3cccc(c23)N1` [NCGC00026112-04], for which, under setting [1], the “Efficacy (%)” value is given as -42%, the “Curve Class” value is on record as -2.2 and the IC50 is 56.2 µM.

Regarding `COc1ccc(S(=O)(=O)Nc2nc(-c3cccc([N+](=O)[O-])c3)cs2)cc1OC` [NCGC00370730-07], under setting [3], the “Efficacy (%)” value is reported as -22%, the “Curve Class” value is listed as -1.4 and the half-maximal inhibitory concentration (IC50) was 22.4 µM.

For `O=C([C@@H]1CCCN(c2ccc3[nH]c(C4(n5cc(Cl)cn5)CC4)nc3n2)C1)N1CCCC1` [NCGC00485074-01], under setting [3], the “Efficacy (%)” value is -26%, the “Curve Class” value is on record as -2.4 and the IC50 came out at 70.8 µM.

On to `O=C(O)C(F)(F)F.O=C(c1cnc(N2CCCCC2)c2ccccc12)N1CCN(c2ccccc2)CC1` [NCGC00262736-01], for which, under setting [1], the “Efficacy (%)” value is listed as -64%, the “Curve Class” value is reported as -3 and the 50% inhibitory concentration (IC50) came to 31.6 µM.

Take `CC1=C(C(=O)Nc2ccc(C(=O)O)cc2)C(c2ccccc2Cl)N=C(Nc2nc3ccccc3o2)N1.O=C(O)C(F)(F)F` (stereo not drawn) [NCGC00351025-01]: under setting [1], the “Efficacy (%)” value was -29% and the IC50 is 50.1 µM. Under setting [2], the “Curve Class” value was -2.4.

In the case of `Cc1ccc(C)n1-c1cnccc1C(=O)O.O=C(O)C(F)(F)F` [NCGC00273496-01], under setting [1], the “Efficacy (%)” value is given as -39%, the “Curve Class” value is given as -2.4 and the IC50 was 44.7 µM.

With `CN(C)CC/C=C1/c2ccccc2Sc2cc(Cl)ccc21.Cl` [NCGC00162079-02], under setting [3], the “Efficacy (%)” value was -13%, the “Curve Class” value is -2.4 and the IC50 is 70.8 µM.

As to `Cc1ccnc(NC(=S)N2CCN(c3cccc(C(F)(F)F)c3)CC2)n1.O=C(O)C(F)(F)F` [NCGC00242308-01], under setting [1], the “Efficacy (%)” value is reported as -41% and the IC50 worked out at 79.4 µM. The “Curve Class” value under setting [2] is on record as -2.2.

On to `O=C(N[C@@H](Cc1ccccc1)C(=O)CCl)OCc1ccccc1` [NCGC00093742-04], for which, under setting [3], the “Efficacy (%)” value is listed as -19%, the “Curve Class” value was -1.2 and the IC50 stood at 10 µM.

Regarding `O=C1c2ccccc2C(=O)c2c(NCCc3ccc(O)cc3)ccc(NCCc3ccc(O)cc3)c21` [NCGC00186017-01], under setting [1], the “Efficacy (%)” value is listed as -32%, the “Curve Class” value is listed as -2.2 and the concentration for half-maximal inhibition (IC50) is 31.6 µM.

Consider `COc1ccc(Nc2cc(C)nc(-n3nc(C)cc3C)n2)cc1Cl.O=C(O)C(F)(F)F` [NCGC00134126-02], for which, under setting [1], the “Efficacy (%)” value is -30% and the IC50 was 50.1 µM. For the same molecule, the “Curve Class” value under setting [2] is recorded as -2.4.

Turning to `O=c1[nH]c2cc(C(F)(F)F)ccc2n1-c1cc(C(F)(F)F)ccc1O` [NCGC00015720-07], under setting [3], the “Efficacy (%)” value was -30%, the “Curve Class” value is on record as -2.4 and the IC50 stood at 44.7 µM.

On to `CN(C)CCc1c[nH]c2ccc(O)cc12` [NCGC00247724-01], for which, under setting [1], the “Efficacy (%)” value is reported as -23%, the “Curve Class” value is on record as -2.4 and the IC50 came to 112 µM.

As for `COc1cccc(CNc2ccc(S(=O)(=O)Nc3ccc(C4CCNCC4)cc3)cc2)c1O.O=C(O)C(F)(F)F` [NCGC00343917-01], under setting [1], the “Efficacy (%)” value is given as -46%, the “Curve Class” value is -2.4 and the IC50 came out at 50.1 µM.

In the case of `CCCCCCCCCCC/C=C\C(C)(C)/C=C\CCCC(=O)O` [NCGC00015371-07], under setting [3], the “Efficacy (%)” value was -30%, the “Curve Class” value was -2.4 and the IC50 amounted to 56.2 µM.

For `Cc1cc(N2CCN(c3ccccc3)CC2)nc(-n2nc(C)cc2C)n1.O=C(O)C(F)(F)F` [NCGC00067399-02], under setting [1], the “Efficacy (%)” value is reported as -30%, the “Curve Class” value was -2.4 and the IC50 is 56.2 µM.

For `CC1CCCC[C@H]2C(=O)C=C[C@H](O)[C@@H]2CC(=O)O1` (stereo partly drawn) [NCGC00169882-02], under setting [1], the “Efficacy (%)” value is given as -82%, the “Curve Class” value is recorded as -1.2 and the IC50 was determined as 28.2 µM.

As to `COc1cc(N2CCC(N3CCN(C)CC3)CC2)ccc1Nc1ncc(Cl)c(-c2c[nH]c3ccccc23)n1` [NCGC00390583-01], under setting [3], the “Efficacy (%)” value is -31%, the “Curve Class” value is given as -2.4 and the IC50 was determined as 50.1 µM.

`C=C1C(=O)O[C@@H]2C3=C(C)CCC[C@]3(C)CC[C@@]12O` [NCGC00385722-01]: under setting [3], the “Efficacy (%)” value is -30%, the “Curve Class” value was -2.4 and the IC50 was determined as 50.1 µM.

Take `CN1C[C@H](C(=O)N[C@]2(C)O[C@@]3(O)[C@@H]4CCCN4C(=O)[C@H](Cc4ccccc4)N3C2=O)C[C@@H]2c3cccc4[nH]cc(c34)C[C@H]21.CS(=O)(=O)O` [NCGC00261042-01]: under setting [3], the “Efficacy (%)” value was -32%, the “Curve Class” value was -2.4 and the IC50 was determined as 56.2 µM.

In the case of `O=C(O)C(F)(F)F.OCc1ccc(-c2ccc3ncnc(N4CCOCC4)c3c2)o1` [NCGC00238384-01], under setting [1], the “Efficacy (%)” value was -42% and the IC50 is 44.7 µM. Besides, the “Curve Class” value under setting [2] is listed as -2.2.

For the molecule `O=c1onc2cnc3ccccc3n12` [NCGC00015770-05], under setting [3], the “Efficacy (%)” value is recorded as -21%, the “Curve Class” value is recorded as -2.4 and the IC50 turned out to be 56.2 µM.
